Measurements: US11485751B2, “Apramycin derivatives” (WAYNE STATE UNIVERSITY, priority 2017, dated 2022)
Values after ≈ are worked out from the molar mass of the structure shown.

What was measured:
[1] = test system: AG215, Klebsiella pneumonia; experiment: MIC reference strain AG215; assay type: cell-based
Description: (§1) Minimal inhibitory concentrations (MIC) have been determined by broth microdilution assays (CLSI. Methods for Dilution Antimicrobial Susceptibility Tests for Bacteria That Grow Aerobically; Approved Standard—Tenth Edition. CLSI document M07-A10. Wayne, Pa.: Clinical and Laboratory Standards Institute; 2015.).
(§2) Table 4 and 5 show the antibacterial activity of the compounds of the invention against bacterial reference strains (table 4) and against representative clinical isolates (table 5).
(§3) Legend to Tables: GEN, gentamicin; AMK, amikacin; PLZ, plazomicin; APR, apramycin; AG212, Escherichia coli ATCC25922; AG215, Klebsiella pneumonia; AG220, Pseudomonas aeruginosa ATCC27853; AG225, Acinetobacter baumannii pittii; AG290, Enterobacter cloacae; […], Mycobacterium smegmatis. MICs for AG192 have been determined in the presence of 0.5 μg/mL of ampicillin in the medium to mimic the synergistic effect of aminoglycoside and β-lactam antibiotics combination therapy in the treatment of Enterococcus infections in humans.

[2] = test system: K. pneum. AG269 AAC(3)-II AAC(6′)-I rmtB; experiment: Activity against G1405-methylated 16S-rRNA, clinical isolate AG269; assay type: cell-based
Description: as §1

[3] = test system: AG290, Enterobacter cloacae; experiment: MIC reference strain AG290; assay type: cell-based
Description: as §1, §2, §3

[4] = test system: Engineered E. coli pH430 WT; experiment: Activity, engineered E. coli pH430 WT; assay type: cell-based; parameters: unit not given here; details: wild type
Description: as §1

AG031 P. aer. APH(3′)-II = experiment: Antibacterial activity, clinical isolate AG031; assay type: cell-based; parameters: unit not given here
Description: as §1, §2

AG163 E. coli APH(3′)-I = experiment: Antibacterial activity, clinical isolate AG163; assay type: cell-based; parameters: unit not given here
Description: as §1, §2

AG038 MRSA = experiment: Antibacterial activity, clinical isolate AG038; assay type: cell-based; parameters: unit not given here
Description: as §1, §2

[5] = test system: AG225, Acinetobacter baumannii pittii; experiment: MIC reference strain AG225; assay type: cell-based
Description: as §1, §2, §3

isolates carrying apmA = experiment: MIC broth microdilution, apmA; assay type: cell-based; details: apmA resistance gene
Description: as §1, with “2015.). […]” for “2015.).”
(§4) Minimal inhibitory concentrations (μg/ml) against clinical isolates from Institute of Medical Microbiology, Univ. Zurich, and the IC50 values for bacterial, human mitochondrial and human cytosolic ribosomes are indicated.
(§5) The Minimal inhibitory concentrations (MICs, μg/ml) against clinical isolates from Institute of Medical Microbiology, Univ Zurich, and the IC50 values for bacterial, human mitochondrial and human cytosolic ribosomes are indicated.

[6] = test system: SZ380, Mycobacterium smegmatis; experiment: MIC reference strain SZ380; assay type: cell-based
Description: as §1, §2, §3

[7] = test system: human cytosolic ribosomes; experiment: in-vitro translation assay, human cytosolic ribosomes; assay type: biochemical
Description: (§6) IC50 values for bacterial, human chimeric, and rabbit reticulocyte ribosomes have been determined by in-vitro translation assays as described previously (Proc. Nat. Ac. Sci USA 2012, 109(27):10984-10989).
(§7) Minimal inhibitory concentrations (MICs, […]) against clinical isolates from Institute of Medical Microbiology, Univ. Zurich, and the IC50 values for bacterial, human mitochondrial and human cytosolic ribosomes are indicated.

[8] = test system: human mitochondrial ribosomes; experiment: in-vitro translation assay, human mitochondrial (human chimeric) ribosomes; assay type: biochemical
Description: as §6, §7

[9] = test system: clinical isolates carrying AAC(3)-IV; experiment: MIC broth microdilution, AAC(3)-IV; assay type: cell-based
Description: as §1, §7, §4, §5

AG173 E. coli AAC(3)-IV = experiment: Antibacterial activity, clinical isolate AG173; assay type: cell-based
Description: as §1, §2

[10] = test system: Enterob. AG302 AAC(3)-II AAC(6′)-I rmtC; experiment: Activity against G1405-methylated 16S-rRNA, clinical isolate AG302; assay type: cell-based
Description: as §1

[11] = test system: AG212, Escherichia coli ATCC25922; experiment: MIC reference strain AG212; assay type: cell-based
Description: as §1, §2, §3

AG001 E. coli WT = experiment: Antibacterial activity, clinical isolate AG001; assay type: cell-based; parameters: unit not given here
Description: as §1, §2

WT clinical isolates = experiment: MIC broth microdilution, WT; assay type: cell-based; details: wild type
Description: as §1, §7, §4, §5

[12] = test system: A baum. AG227 APH(3′)-I armA; experiment: Activity against G1405-methylated 16S-rRNA, clinical isolate AG227; assay type: cell-based
Description: as §1

ATCC19977 M. abcessus = experiment: MIC reference strain ATCC19977; assay type: cell-based
Description: as §1, §2

[13] = test system: E. coli AG153 AAC(3)-II APH(3′)-II rmtB; experiment: Activity against G1405-methylated 16S-rRNA, clinical isolate AG153; assay type: cell-based; parameters: unit not given here
Description: as §1

bacterial ribosomes = experiment: in-vitro translation assay, bacterial ribosomes; assay type: biochemical
Description: as §6, §7

[14] = test system: AG220, Pseudomonas aeruginosa ATCC27853; experiment: MIC reference strain AG220; assay type: cell-based
Description: as §1, §2, §3

[15] = test system: Engineered E. coli pH424 armA; experiment: Activity against G1405-methylated 16S-rRNA, E. coli pH424 armA; assay type: cell-based
Description: as §1

[16] = test system: AG039 MRSA AAC(6′)-I ANT(4′)-I; experiment: Antibacterial activity, clinical isolate AG039; assay type: cell-based
Description: as §1, §2

[17] = test system: AG042 MRSA AAC(6′)-I ANT(4′)-I APH(2′); experiment: Antibacterial activity, clinical isolate AG042; assay type: cell-based
Description: as §1, §2

[18] = test system: AG033 P. aer. APH(3′)-II AAC(6′)-I; experiment: Antibacterial activity, clinical isolate AG033; assay type: cell-based; parameters: unit not given here
Description: as §1, §2

[19] = test system: Engineered E. coli AG103 armA; experiment: Activity against G1405-methylated 16S-rRNA, E. coli AG103 armA; assay type: cell-based
Description: as §1

AG003 E. coli AAC(3)-II = experiment: Antibacterial activity, clinical isolate AG003; assay type: cell-based; parameters: unit not given here
Description: as §1, §2

[20] = test system: Engineered E. coli pH425 rmtB; experiment: Activity against G1405-methylated 16S-rRNA, E. coli pH425 rmtB; assay type: cell-based
Description: as §1

[21] = test system: Engineered E. coli pH427 rmtF; experiment: Activity against G1405-methylated 16S-rRNA, E. coli pH427 rmtF; assay type: cell-based
Description: as §1

[22] = test system: Engineered E. coli pH426 rmtC; experiment: Activity against G1405-methylated 16S-rRNA, E. coli pH426 rmtC; assay type: cell-based
Description: as §1

AG032 P. aer. APH(3′)-II = experiment: Antibacterial activity, clinical isolate AG032; assay type: cell-based; parameters: unit not given here
Description: as §1, §2

AG055 E. coli WT = experiment: Antibacterial activity, clinical isolate AG055; assay type: cell-based; parameters: unit not given here
Description: as §1, §2

## CN[C@H]1C(O)C2O[C@H](O[C@@H]3C(N)C[C@@H](N)[C@@H](O)[C@H]3OCC(O)CN)C(N)C[C@@H]2O[C@@H]1O[C@H]1OC(CO)[C@@H](N)[C@H](O)C1O (stereo partly shown) [DC209]
[1]; Klebsiella pneumoniae, read-out: MIC AG215 K. pneumonia
  MIC: 1 µg/mL
[2]
  Activity K. pneum. AG269 AAC(3)-II AAC(6′)-I rmtB: 1
[3]; Enterobacter cloacae, read-out: MIC AG290 E. cloacae
  MIC: 1 µg/mL
[4]
  Activity E. coli pH430 WT: 2-4
AG031 P. aer. APH(3′)-II
  Antibacterial activity AG031 P. aer. APH(3′)-II: 4
AG163 E. coli APH(3′)-I
  Antibacterial activity AG163 E. coli APH(3′)-I: 4
AG038 MRSA
  Antibacterial activity AG038 MRSA: 1-2
[5]; Acinetobacter baumannii, read-out: MIC AG225 A. baumannii
  MIC: 4 µg/mL
Isolates carrying apmA
  MIC: 64 to 128 µg/mL (≈ 104 to 209 µM)
[6]; Mycolicibacterium smegmatis, read-out: MIC SZ380 M. smegmatis
  MIC: 0.125 µg/mL
[7]
  IC50: 105 µM
[8]
  IC50: 146 µM
[9]; read-out: MIC AAC(3)-IV
  MIC: 8 µg/mL (≈ 13.1 µM)
AG173 E. coli AAC(3)-IV
  Antibacterial activity AG173 E. coli AAC(3)-IV: 32
[10]
  Activity Enterob. AG302 AAC(3)-II AAC(6′)-I rmtC: 2
[11]; Escherichia coli, ATCC25922, read-out: MIC AG212 E. coli
  MIC: 2 to 4 µg/mL
AG001 E. coli WT
  Antibacterial activity AG001 E. coli WT: 2
WT clinical isolates; read-out: MIC WT, clinical isolates, IMM Univ. Zurich
  MIC: 2 to 4 µg/mL (≈ 3.26 to 6.53 µM)
[12]
  Activity A baum. AG227 APH(3′)-I armA: 2-4
ATCC19977 M. abcessus; read-out: MIC ATCC19977 M. abcessus
  MIC: 0.5 to 1 µg/mL (≈ 0.816 to 1.63 µM)
[13]
  Activity E. coli AG153 AAC(3)-II APH(3′)-II rmtB: 2-4
Bacterial ribosomes
  IC50: 0.04 µM
[14]; Pseudomonas aeruginosa, ATCC27853, read-out: MIC AG220 P. aeruginosa
  MIC: 2 to 4 µg/mL
[15]
  Activity E. coli pH424 armA: 2

## CNC1C(OC2OC(CO)C(N)C(O)C2O)OC2CC(N)C(OC3C(N)CC(NC(=O)C(O)CCN)C(O)C3O)OC2C1O (stereo not shown) [DC176]
[1]; reference strain
  MIC AG215 K. pneumonia: 2 µg/mL
[2]
  Activity K. pneum. AG269 AAC(3)-II AAC(6′)-I rmtB: 2
[16]
  Antibacterial activity AG039 MRSA AAC(6′)-I ANT(4′)-I: 4-8
[3]; reference strain
  MIC AG290 E. cloacae: 4 µg/mL
[4]
  Activity E. coli pH430 WT: 2
AG031 P. aer. APH(3′)-II
  Antibacterial activity AG031 P. aer. APH(3′)-II: 16
[17]
  Antibacterial activity AG042 MRSA AAC(6′)-I ANT(4′)-I APH(2′): 8
AG163 E. coli APH(3′)-I
  Antibacterial activity AG163 E. coli APH(3′)-I: 4
AG038 MRSA
  Antibacterial activity AG038 MRSA: 4-8
[5]; reference strain
  MIC AG225 A. baumannii: 8 µg/mL
Isolates carrying apmA
  MIC apmA: 16 µg/mL (≈ 25 µM)
[6]; reference strain
  MIC SZ380 M. smegmatis: 0.5 µg/mL
[7]
  IC50: 326 µM
[18]
  Antibacterial activity AG033 P. aer. APH(3′)-II AAC(6′)-I: >32
[8]
  IC50: 166 µM
[9]; clinical isolates, IMM Univ. Zurich, AAC(3)-IV
  MIC AAC(3)-IV: 4 µg/mL (≈ 6.24 µM)
[19]
  Activity E. coli AG103 armA: 0.25-0.5
AG003 E. coli AAC(3)-II
  Antibacterial activity AG003 E. coli AAC(3)-II: 4
[20]
  Activity E. coli pH425 rmtB: 2
AG173 E. coli AAC(3)-IV
  Antibacterial activity AG173 E. coli AAC(3)-IV: 2-4
[21]
  Activity E. coli pH427 rmtF: 4
[10]
  Activity Enterob. AG302 AAC(3)-II AAC(6′)-I rmtC: 2
[11]; reference strain ATCC25922
  MIC AG212 E. coli: 2 to 4 µg/mL
AG001 E. coli WT
  Antibacterial activity AG001 E. coli WT: 4
WT clinical isolates; clinical isolates, IMM Univ. Zurich
  MIC WT: 2 µg/mL (≈ 3.12 µM)
[12]
  Activity A baum. AG227 APH(3′)-I armA: 2
[22]
  Activity E. coli pH426 rmtC: 4
AG032 P. aer. APH(3′)-II
  Antibacterial activity AG032 P. aer. APH(3′)-II: 32
ATCC19977 M. abcessus; reference strain
  MIC ATCC19977 M. abcessus: 2 µg/mL (≈ 3.12 µM)
[13]
  Activity E. coli AG153 AAC(3)-II APH(3′)-II rmtB: 4
AG055 E. coli WT
  Antibacterial activity AG055 E. coli WT: 8
Bacterial ribosomes
  IC50: 0.11 µM
[14]; reference strain ATCC27853
  MIC AG220 P. aeruginosa: 16 µg/mL
[15]
  Activity E. coli pH424 armA: 2
